{"source": "patent US20260124214A1", "about": "“HETEROCYCLIC COMPOUNDS FOR USE IN THE TREATMENT OF CANCER” (ARTIOS PHARMA LIMITED, priority 2021, published 2026)", "molecular_target": "T1, Human Polθ polymerase domain (aa1820-2590) (Homo sapiens, UniProt O75417)", "T1 construct": "Human Polθ polymerase domain (aa1820-2590) was expressed in E. Coli; made in house; host or cells: E. coli", "T1 sequence (O75417 1820-2590)": "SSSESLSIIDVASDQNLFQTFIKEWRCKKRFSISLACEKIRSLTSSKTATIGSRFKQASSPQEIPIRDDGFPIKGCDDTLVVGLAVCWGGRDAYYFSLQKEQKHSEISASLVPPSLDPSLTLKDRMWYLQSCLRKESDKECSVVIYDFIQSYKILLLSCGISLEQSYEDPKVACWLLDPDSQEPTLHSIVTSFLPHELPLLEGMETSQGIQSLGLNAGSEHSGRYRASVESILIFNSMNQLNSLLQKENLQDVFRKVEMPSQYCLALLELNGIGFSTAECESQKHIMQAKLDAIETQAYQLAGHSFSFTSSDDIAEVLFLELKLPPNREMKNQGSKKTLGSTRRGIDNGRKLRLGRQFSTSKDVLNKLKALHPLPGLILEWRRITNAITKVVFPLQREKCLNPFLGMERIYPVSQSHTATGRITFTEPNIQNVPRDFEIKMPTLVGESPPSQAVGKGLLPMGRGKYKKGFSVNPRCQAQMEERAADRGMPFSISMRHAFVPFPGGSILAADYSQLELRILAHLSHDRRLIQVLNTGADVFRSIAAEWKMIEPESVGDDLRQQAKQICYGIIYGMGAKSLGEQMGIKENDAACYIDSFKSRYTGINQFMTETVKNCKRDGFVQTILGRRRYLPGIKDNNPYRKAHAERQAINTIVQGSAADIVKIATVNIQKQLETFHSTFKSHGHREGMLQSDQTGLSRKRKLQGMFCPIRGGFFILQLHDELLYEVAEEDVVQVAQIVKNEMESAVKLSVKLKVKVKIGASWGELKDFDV", "test": "Polθ Polymerase Domain WT KI Assay (PicoGreen)", "format": "biochemical", "settings": "100 nM DNA substrate, 0.156 nM Polθ, initial rates vs inhibitor concentration", "experimental": "A PicoGreen assay was used to measure the KI values of reversible compounds that inhibit the activity of Polθ in vitro.\nHuman Polθ polymerase domain (aa1820-2590) was expressed in E. Coli, purified, aliquoted and stored at −80° C. until required. Polθ substrate was generated from a 1.2:1 mix of DNA II Short to DNA II Long to give a final concentration of […] substrate in annealing buffer (20 mM Tris pH 7.5, 50 mM NaCl). The substrate was heated in 50 mL aliquots to 95° C. in a heating block for 5 min before the heating block switched off, the reaction left to cool to rt and stored at −20° C. until required.\nAssay measurements were performed with 1× buffer comprising 25 mM Tris pH 7.5, 12.5 mM NaCl, […], 5% (v/v) glycerol, 0.01% v/v Triton x-100, 0.1 mg/ml BSA, 1 mM DTT. […] 100 nL of 23×1:1.5-fold serial dilutions and a DMSO only control were dispensed using the Tecan dispenser into Greiner 384 well black low volume plates (product code 784076). DMSO concentration was maintained at 1% of the final assay volume by back filling with DMSO.\nTo stop the reaction, 5 μL of a solution containing 25 mM Tris-HCl PH 7.5 and 20 mM EDTA was added at […] (t=0, 15, 30, 60, 90, 120, 150, 180 mins) using the Tempest's time delay function. The plates were covered during the time course to prevent evaporation. After completing the assay, 5 μL of detection reagent (25 mM Tris-HCl pH 7.5 and 2.5% (v/v) PicoGreen) was dispensed into the wells using a Tempest liquid handler (Formulatrix) and plates subsequently read on the CLARIOstar Plus (BMG Labtech) using the default optical settings for fluorescein and the auto gain/focus settings.\nAll data analysis was carried out using GraphPad Prism V.8 (GraphPad Software Inc, San Diego, CA). Time course data for each inhibitor concentration were fitted to the linear regression model in GraphPad Prism. Any time points where the control (DMSO only) reaction was no longer linear were excluded from the analysis. The initial rates (slopes) obtained from the linear regression were then plotted against inhibitor concentration and fitted to an inhibitor vs. response variable slope (four parameter) model on GraphPad Prism to determine the KI values.", "note": "Counter-ions that a name gives are not always drawn.", "data": [{"compound": "Cc1cc(C(F)(F)F)cc(N2C(=O)C[C@@H]3CN(C[C@@H](O)CN(C)C)c4c(Cl)cccc4N(C)C(=O)[C@H]32)n1", "note": "(racemic) [Example 132a, (3aR,11aS)-6-chloro-5-((S/R)-3-(dimethylamino)-2-hydroxypropyl)-10-methyl-1-(6-methyl-4-(trifluoromethyl)pyridin-2-yl)-1,3a,4,5,10,11a-hexahydro-2H-benzo[b]pyrrolo[2,3-f][1,4]diazocine-2,11(3H)-dione]", "values": [{"measurement": "Ki", "result": 6.27, "unit": "nM"}]}, {"compound": "Cc1cc(C(F)(F)F)cc(N2C(=O)C[C@@H]3CN(C[C@@H](O)CN4CCOCC4)c4c(Cl)cccc4N(C)C(=O)[C@H]32)n1", "note": "(racemic) [Example 133a, (3aR,11aS)-6-chloro-5-((S/R)-2-hydroxy-3-morpholinopropyl)-10-methyl-1-(6-methyl-4-(trifluoromethyl)pyridin-2-yl)-1,3a,4,5,10,11a-hexahydro-2H-benzo[b]pyrrolo[2,3-f][1,4]diazocine-2,11(3H)-dione]", "values": [{"measurement": "Ki", "result": 1.47, "unit": "nM"}]}, {"compound": "Cc1cc(C(F)(F)F)cc(N2C(=O)C[C@@H]3CN(CCN4C[C@@H](C)N[C@@H](C)C4)c4c(C)cccc4N(C)C(=O)[C@H]32)n1", "note": "(relative stereo) [Example 45, (3aR,11aS)-5-(2-(rel-(3R,5S)-3,5-Dimethylpiperazin-1-yl)ethyl)-6,10-dimethyl-1-(6-methyl-4-(trifluoromethyl)pyridin-2-yl)-1,3a,4,5,10,11a-hexahydro-2H-benzo[b]pyrrolo[2,3-f][1,4]diazocine-2,11(3H)-dione dihydrochloride]", "values": [{"measurement": "Ki", "result": 0.651, "unit": "nM"}]}, {"compound": "Cc1cc(C(F)(F)F)cc(N2C(=O)C[C@@H]3CN(C[C@H]4CNC[C@@H]4O)c4c(F)cccc4N(C)C(=O)[C@H]32)n1", "note": "(relative stereo) [Example 91, (3aR,11aS)-6-Fluoro-5-(((rel-trans)-4-hydroxypyrrolidin-3-yl)methyl)-10-methyl-1-(6-methyl-4-(trifluoromethyl)pyridin-2-yl)-1,3a,4,5,10,11a-hexahydro-2H-benzo[b]pyrrolo[2,3-f][1,4]diazocine-2,11(3H)-dione]", "values": [{"measurement": "Ki", "result": 17.3, "unit": "nM"}]}, {"compound": "Cc1cc(C(F)(F)F)cc(N2C(=O)C[C@@H]3CN(C[C@H]4CCNC[C@H]4C#N)c4c(Cl)cccc4N(C)C(=O)[C@H]32)n1", "note": "(relative stereo) [Example 102, (rel-cis)-4-(((3aR,11aS)-6-Chloro-10-methyl-1-(6-methyl-4-(trifluoromethyl)pyridin-2-yl)-2,11-dioxo-1,2,3,3a,4,10,11,11a-octahydro-5H-benzo[b]pyrrolo[2,3-f][1,4]diazocin-5-yl)methyl)piperidine-3-carbonitrile hydrochloride]", "values": [{"measurement": "Ki", "result": 1.77, "unit": "nM"}]}, {"compound": "Cc1cc(C(F)(F)F)cc(N2C(=O)CC3CN(C4CC(OCc5ccccc5)C4)c4c(F)cccc4N(C)C(=O)C32)n1", "note": "(single isomer, unassigned) [Example 92a]", "values": [{"measurement": "Ki", "result": 9.06, "unit": "nM"}]}, {"compound": "Cc1cc(C(F)(F)F)cc(N2C(=O)C[C@@H]3CN(C4CC(OCc5ccccc5)C4)c4c(F)cccc4N(C)C(=O)[C@H]32)n1", "note": "(single isomer, unassigned) [Example 92b]", "values": [{"measurement": "Ki", "result": 14.7, "unit": "nM"}]}, {"compound": "Cc1cc(C(F)(F)F)cc(N2C(=O)C[C@@H]3CN(Cc4cn5c(n4)C(C)N(C)CC5)c4c(Cl)cccc4N(C)C(=O)[C@H]32)n1", "note": "(single isomer, unassigned) [Example 96a]", "values": [{"measurement": "Ki", "result": 1.45, "unit": "nM"}]}, {"compound": "Cc1cc(C(F)(F)F)cc(N2C(=O)C[C@@H]3CN(CC4CCCCN4)c4c(Cl)cccc4N(C)C(=O)[C@H]32)n1", "note": "(single isomer, unassigned) [Example 105a]", "values": [{"measurement": "Ki", "result": 8.57, "unit": "nM"}]}, {"compound": "Cc1cc(C(F)(F)F)cc(N2C(=O)C[C@@H]3CN(CC4COCCN4)c4c(F)cccc4N(C)C(=O)[C@H]32)n1", "note": "(single isomer, unassigned) [Example 106a]", "values": [{"measurement": "Ki", "result": 13.7, "unit": "nM"}]}, {"compound": "Cc1cc(C(F)(F)F)cc(N2C(=O)C[C@@H]3CN(CC4CCCN4)c4c(Cl)cccc4N(C)C(=O)[C@H]32)n1", "note": "(single isomer, unassigned) [Example 107a]", "values": [{"measurement": "Ki", "result": 3.91, "unit": "nM"}]}, {"compound": "Cc1cc(C(F)(F)F)cc(N2C(=O)C[C@@H]3CN(CC4COCCN4)c4c(Cl)cccc4N(C)C(=O)[C@H]32)n1", "note": "(single isomer, unassigned) [Example 108b]", "values": [{"measurement": "Ki", "result": 1.55, "unit": "nM"}]}, {"compound": "Cc1cc(C(F)(F)F)cc(N2C(=O)C[C@@H]3CN(CC4CNCCO4)c4c(Cl)cccc4N(C)C(=O)[C@H]32)n1", "note": "(single isomer, unassigned) [Example 109a]", "values": [{"measurement": "Ki", "result": 1.11, "unit": "nM"}]}, {"compound": "Cc1cc(C(F)(F)F)cc(N2C(=O)C[C@@H]3CN(CC4COCCN4)c4c(C)cccc4N(C)C(=O)[C@H]32)n1", "note": "(single isomer, unassigned) [Example 112a]", "values": [{"measurement": "Ki", "result": 4.14, "unit": "nM"}]}, {"compound": "Cc1cc(C(F)(F)F)cc(N2C(=O)C[C@@H]3CN(Cc4cn5c(n4)C(C)N(C)CC5)c4c(C)cccc4N(C)C(=O)[C@H]32)n1", "note": "(single isomer, unassigned) [Example 116a]", "values": [{"measurement": "Ki", "result": 0.63, "unit": "nM"}]}, {"compound": "Cc1cc(C(F)(F)F)cc(N2C(=O)C[C@@H]3CN(CC4CCCCN4C)c4c(Cl)cccc4N(C)C(=O)[C@H]32)n1", "note": "(single isomer, unassigned) [Example 117a]", "values": [{"measurement": "Ki", "result": 3.37, "unit": "nM"}]}, {"compound": "Cc1cc(C(F)(F)F)cc(N2C(=O)C[C@@H]3CN(CC4CCCN4C)c4c(Cl)cccc4N(C)C(=O)[C@H]32)n1", "note": "(single isomer, unassigned) [Example 118a]", "values": [{"measurement": "Ki", "result": 8.5, "unit": "nM"}]}, {"compound": "Cc1cc(C(F)(F)F)cc(N2C(=O)C[C@@H]3CN(CC4COCCN4C)c4c(Cl)cccc4N(C)C(=O)[C@H]32)n1", "note": "(single isomer, unassigned) [Example 119b]", "values": [{"measurement": "Ki", "result": 1.08, "unit": "nM"}]}, {"compound": "Cc1cc(C(F)(F)F)cc(N2C(=O)C[C@@H]3CN(CC4CN(C)CCO4)c4c(Cl)cccc4N(C)C(=O)[C@H]32)n1", "note": "(single isomer, unassigned) [Example 120a, hydrochloride]", "values": [{"measurement": "Ki", "result": 1.39, "unit": "nM"}]}, {"compound": "Cc1cc(C(F)(F)F)cc(N2C(=O)C[C@@H]3CN(Cc4ccc(C5CCCN5C)cc4)c4c(F)cccc4N(C)C(=O)[C@H]32)n1", "note": "(single isomer, unassigned) [Example 125a, hydrochloride]", "values": [{"measurement": "Ki", "result": 7.92, "unit": "nM"}]}, {"compound": "Cc1cc(C(F)(F)F)cc(N2C(=O)C[C@@H]3CN(C[C@H]4CCN(C)[C@@H](C)C4)c4c(Cl)cccc4N(C)C(=O)[C@H]32)n1", "note": "(single isomer, unassigned) [Example 126a]", "values": [{"measurement": "Ki", "result": 1.56, "unit": "nM"}]}, {"compound": "Cc1cc(C(F)(F)F)cc(N2C(=O)C[C@@H]3CN(C[C@@H]4CCN(C)[C@H](C)C4)c4c(Cl)cccc4N(C)C(=O)[C@H]32)n1", "note": "(single isomer, unassigned) [Example 126b]", "values": [{"measurement": "Ki", "result": 1.91, "unit": "nM"}]}, {"compound": "Cc1cc(C(F)(F)F)cc(N2C(=O)C[C@@H]3CN(C[C@H]4CCN(C)[C@H](C)C4)c4c(Cl)cccc4N(C)C(=O)[C@H]32)n1", "note": "(single isomer, unassigned) [Example 126c]", "values": [{"measurement": "Ki", "result": 0.882, "unit": "nM"}]}, {"compound": "Cc1cc(C(F)(F)F)cc(N2C(=O)C[C@@H]3CN(C[C@@H]4CCN(C)[C@@H](C)C4)c4c(Cl)cccc4N(C)C(=O)[C@H]32)n1", "note": "(single isomer, unassigned) [Example 126d]", "values": [{"measurement": "Ki", "result": 1.48, "unit": "nM"}]}, {"compound": "Cc1cc(C(F)(F)F)cc(N2C(=O)C[C@@H]3CN(CC(C)O)c4c(F)cccc4N(C)C(=O)[C@H]32)n1", "note": "(single isomer, unassigned) [Example 130b]", "values": [{"measurement": "Ki", "result": 10.2, "unit": "nM"}]}, {"compound": "Cc1cc(C(F)(F)F)cc(N2C(=O)C[C@@H]3CN(CC(C)O)c4c(Cl)cccc4N(C)C(=O)[C@H]32)n1", "note": "(single isomer, unassigned) [Example 131b]", "values": [{"measurement": "Ki", "result": 1.92, "unit": "nM"}]}, {"compound": "Cc1cc(C(F)(F)F)cc(N2C(=O)C[C@@H]3CN(CC(O)CN(C)C)c4c(Cl)cccc4N(C)C(=O)[C@H]32)n1", "note": "(single isomer, unassigned) [Example 132b]", "values": [{"measurement": "Ki", "result": 6.14, "unit": "nM"}]}]}
